A short description of data set [1]: Bioavailability in squirrel monkey (dose 5 mg/kg). The conditions noted are these: in vivo. Type of data set: ADME, organism-based, Saimiri sciureus.
Data set [2] in a line: Terminal half life of the compound. Type of data set: ADME.
A short description of data set [3]: Clearance was estimated in two squirrel monkeys after iv administration at 5 mg/kg. The conditions noted are these: in vivo. The class given is ADME, organism-based. Also noted: dose 5 mg/kg, route intravenous.
Data set [4] has as its target Cysteinyl leukotriene receptor 1 (Cavia porcellus). Put plainly: Inhibition of binding of [3H]LTD4 to guinea pig lung membrane.
In data set [5] the target is T1, Cysteinyl leukotriene receptor 1 (Homo sapiens, UniProt Q9Y271).
T1 sequence (Q9Y271 whole entry): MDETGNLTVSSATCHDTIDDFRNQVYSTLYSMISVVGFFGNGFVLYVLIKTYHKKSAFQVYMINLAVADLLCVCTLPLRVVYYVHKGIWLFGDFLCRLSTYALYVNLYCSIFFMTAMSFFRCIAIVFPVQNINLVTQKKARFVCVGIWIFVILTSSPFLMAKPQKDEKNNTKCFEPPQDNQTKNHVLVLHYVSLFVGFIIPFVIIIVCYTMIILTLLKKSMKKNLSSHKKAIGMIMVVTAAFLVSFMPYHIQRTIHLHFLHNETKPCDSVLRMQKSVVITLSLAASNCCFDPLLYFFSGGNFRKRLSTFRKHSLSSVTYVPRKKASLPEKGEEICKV
The data set can be described thus: Inhibition of binding of [ H]-LTD4 to DMSO differentiated U937 cell membranes. Also noted: species or system U-937.

Data set [6] deals with Cysteinyl leukotriene receptor 1 (Cavia porcellus). Put plainly: Inhibition of binding of [3H]LTD4 to guinea pig lung membrane supplemented with 0.05% human serum albumin(HSA).
Data set [7] can be described thus: Compound was tested on dU937 cell membranes using LTC4 binding assays. The class given is functional, Homo sapiens.
A short description of data set [8]: Compound was tested on PMN membranes using LTD4 binding assays. Type of data set: functional, Homo sapiens.

Broadly, the bioavailability is the share of a dose that reaches the circulation, judged against a reference dose that is usually intravenous. Broadly, the half-life is the time in which the quantity being followed falls by half. Usually clearance stands for a measure of how efficiently the substance is removed, as volume per time. Consider `CC(C)(O)c1ccccc1CC[C@@H](SCC1(CC(=O)O)CC1)c1cccc(/C=C/c2ccc3sc(F)c(F)c3n2)c1`, for which the bioavailability in data set [1] came out at 25%. The same molecule gave a half-life in data set [2] of 150 min. In data set [3], the clearance was 1.61 mL/min/kg.

For orientation: IC50 means the concentration that gives 50% inhibition. As for `O=C(O)CC1(CS[C@H](CCc2ccc(C(F)(F)F)cc2)c2cccc(/C=C/c3ccc4sc(Cl)c(Cl)c4n3)c2)CC1`, the IC50 in data set [4] came to 3.84 nM; in data set [5], 8.67 nM; in data set [6], 1.43 nM. The bioavailability in data set [1] came out at 4%. Further, the clearance in data set [3] is 1.4 mL/min/kg.

Take `CC(C)(O)c1ccccc1CC[C@@H](SCC1(CC(=O)O)CC1)c1cccc(/C=C/c2ccc3sc(Cl)c(Cl)c3n2)c1`: the IC50 in data set [4] was 0.89 nM; in data set [5] it was 0.55 nM; in data set [7], > 46 µM; in data set [8] it was > 3000 nM; in data set [6], 0.34 nM. In addition, in data set [1], the bioavailability amounted to 29%. The same molecule showed a half-life in data set [2] of 252 min. The clearance in data set [3] is 0.57 mL/min/kg.

Consider `O=C(O)CC1(CS[C@H](CCc2cccc(C3(O)CCC3)c2)c2cccc(/C=C/c3ccc4sc(Cl)c(Cl)c4n3)c2)CC1`, for which the IC50 in data set [4] came to 0.44 nM; in data set [5], 0.47 nM; in data set [6], 0.24 nM. In data set [1], this molecule showed a bioavailability of 13%. Besides, the clearance in data set [3] is 2.6 mL/min/kg.

For `O=C(O)CC1(CS[C@H](CCc2ccccc2Br)c2cccc(/C=C/c3ccc4sc(Cl)c(Cl)c4n3)c2)CC1`, the IC50 in data set [4] was determined as 2.6 nM; in data set [5], 2.43 nM; in data set [6], 1.93 nM. In addition, in data set [1], the bioavailability is 3%. For the same molecule, the half-life in data set [2] is 528 min. Besides, the clearance in data set [3] is 0.46 mL/min/kg.

For the molecule `CC(C)(O)c1ccc(CC[C@@H](SCC2(CC(=O)O)CC2)c2cccc(/C=C/c3ccc4sc(Cl)c(Cl)c4n3)c2)cc1`, the IC50 in data set [4] came out at 0.56 nM; in data set [5], 0.38 nM; in data set [6], 0.2 nM. For the same molecule, the bioavailability in data set [1] came to 35%. In data set [3], the clearance is 6.6 mL/min/kg.

In the case of `O=C(O)CC1(CS[C@H](CCc2ccc(C3(O)CCC3)cc2)c2cccc(/C=C/c3ccc4sc(Cl)c(Cl)c4n3)c2)CC1`, the 50% inhibitory concentration (IC50) is 0.58 nM in data set [4], 0.65 nM in data set [5] and 0.29 nM in data set [6]. The same molecule displayed a bioavailability in data set [1] of 15%. In addition, the half-life in data set [2] is 120 min. In addition, the clearance in data set [3] was 4.7 mL/min/kg.

Turning to `O=C(O)CC1(CS[C@H](CCc2ccccc2C(O)(C(F)(F)F)C(F)(F)F)c2cccc(/C=C/c3ccc4sc(Cl)c(Cl)c4n3)c2)CC1`, the IC50 in data set [4] was found to be 4.12 nM; in data set [5] it was 6.42 nM; in data set [6], 1.21 nM. This molecule registered a bioavailability in data set [1] of 2%. The molecule further had a half-life in data set [2] of 660 min. In addition, in data set [3], the clearance was 0.9 mL/min/kg.

As for `O=C(O)CC1(CS[C@H](CCc2ccccc2C2(O)CCC2)c2cccc(/C=C/c3ccc4sc(Cl)c(Cl)c4n3)c2)CC1`, the figures for the IC50 in data set [4], in data set [5] and in data set [6] were 0.74 nM, 1.05 nM and 0.34 nM, respectively. The same molecule gave a bioavailability in data set [1] of 22%. The clearance in data set [3] is 1 mL/min/kg.

`CC(C)(O)c1ccccc1CC[C@@H](SCC1(CC(=O)O)CC1)c1cccc(/C=C/c2ccc3sccc3n2)c1`: the IC50 was 1.31 nM in data set [4], 8.49 nM in data set [5] and 20.4 nM in data set [6].

For `O=C(O)CC1(CS[C@H](CCc2ccccc2C(F)(F)F)c2cccc(/C=C/c3ccc4sc(Cl)c(Cl)c4n3)c2)CC1`, the bioavailability in data set [1] was determined as 1%. In data set [2], this molecule showed a half-life of 366 min. Also, the clearance in data set [3] is 0.4 mL/min/kg.

As to `O=C(O)CC1(CS[C@H](CCc2ccccc2CO)c2cccc(/C=C/c3ccc4sc(Cl)c(Cl)c4n3)c2)CC1`, the half-maximal inhibitory concentration (IC50) in data set [4] is 0.48 nM; in data set [5] it was 0.72 nM; in data set [6] it was 0.48 nM. Moreover, the clearance in data set [3] was 3.5 mL/min/kg.

`CC(C)(O)c1ccccc1CC[C@@H](SCC1(CC(=O)O)CC1)c1cccc(/C=C/c2ccc3sc(Cl)cc3n2)c1` had a bioavailability in data set [1] of 31%. For the same molecule, the clearance in data set [3] was 1.2 mL/min/kg.

On to `CC(C)(O)c1ccccc1CC[C@@H](SCC1(CC(=O)O)CC1)c1cccc(C2CC2c2ccc3sc(Cl)c(Cl)c3n2)c1` (some centres not stated), for which the IC50 in data set [4] worked out at 10.9 nM; in data set [5], 15.7 nM; in data set [6], 9.12 nM.

Turning to `O=C(O)CC1(CS[C@H](CCc2ccc(Br)cc2)c2cccc(/C=C/c3ccc4sc(Cl)c(Cl)c4n3)c2)CC1`, the IC50 in data set [4] is 1.95 nM; in data set [5], 4.7 nM; in data set [6], 1.03 nM. The bioavailability in data set [1] is 3%. The same molecule gave a half-life in data set [2] of 306 min. Besides, in data set [3], the clearance was 1.6 mL/min/kg.

Regarding `CC(C)(O)c1ccccc1CC[C@@H](SCC1(CC(=O)O)CC1)c1cccc(COc2ccc3sc(Cl)c(Cl)c3n2)c1`, the IC50 in data set [4], in data set [5] and in data set [6] was > 150 nM in each case.

Regarding `O=C(O)CC1(CS[C@H](CCc2ccccc2)c2cccc(/C=C/c3ccc4sc(Cl)c(Cl)c4n3)c2)CC1`, the IC50 in data set [4] was 0.34 nM; in data set [5], 1.63 nM; in data set [6] it was 0.37 nM. This molecule also yielded a bioavailability in data set [1] of 13%. In data set [2], this molecule had a half-life of 240 min. In data set [3], the clearance is 1.8 mL/min/kg.

Regarding `CC(C)(O)c1ccccc1CC[C@@H](SCC1(CC(=O)O)CC1)c1cccc(OCc2ccc3sc(Cl)c(Cl)c3n2)c1`, the IC50 in data set [4] is 0.42 nM; in data set [5], 2.01 nM; in data set [6], 2.2 nM.

As for `CC(C)(O)c1ccccc1CC[C@@H](SCC1(CC(=O)O)CC1)c1cccc(/C=C/c2ccc3scc(Cl)c3n2)c1`, the results for the IC50 in data set [4], in data set [5] and in data set [6] were 0.54 nM, 1.91 nM and 1.58 nM, respectively. The bioavailability in data set [1] came to 13%. Besides, the clearance in data set [3] was 0.39 mL/min/kg.

`O=C(O)CC1(CS[C@H](CCc2ccc(F)cc2)c2cccc(/C=C/c3ccc4sc(Cl)c(Cl)c4n3)c2)CC1`: the IC50 is 1.09 nM in data set [4], 2.16 nM in data set [5] and 0.65 nM in data set [6]. For the same molecule, the bioavailability in data set [1] is 5%. Also, the clearance in data set [3] is 1.8 mL/min/kg.

The values above are taken from ChEMBL document CHEMBL1128064, “Discovery of L-740,515, a potent thienopyridine cysLT1 receptor (LTD4 receptor) antagonist” (Bioorg Med Chem Lett, 1995).
